Test results taken from patent US20210381022A1, “INTEGRATED DRUG DISCOVERY PLATFORM FOR INBORN ERROR OF METABOLISM DISORDERS” (RAMOT AT TEL-AVIV UNIVERSITY LTD., priority 2018, published 2021).

How the values were obtained:
cys4Δ strain = assay: Yeast growth assay of cys4Δ mutant with homocysteine; format: cell-based, Saccharomyces cerevisiae; conditions: compared to the wild-type strain, 20, 40, 80 mg/L
Method: FIG. 27E: WT and cys4Δ strains diluted to OD600 0.01 were grown in SD media containing 13 mg/L cysteine and 80 mg/L homocysteine in the under the indicated conditions. 0.3 mM TA was added to the samples at different OD600. The percentage of growth represents the growth the indicated condition compared to the growth of WT without TA. *P<0.05 (Student's t-test).
Homocystinuria results from cystathionine beta synthase (CBS) deficiency, leading to excess of Hcy. A knockout mutation in CYS4, the highly-conserved functional yeast ortholog of the human cystathionine beta synthase (CBS) known to be essential for Hcy salvage, was therefore generated. Due to the contribution of this enzyme to cysteine biosynthesis, it was first shown that its absence confers cysteine dependence (FIG. 27A). […] To examine whether the observed toxicity was associated with the in vivo formation of amyloid-like assemblies, the cells were stained with the amyloid-specific fluorescent dye ProteoStat which allows to detect intracellular amyloid fibrils. […] Next, to further establish the amyloid-like nature of the aggregates, the fibrillation-modifying polyphenolic compound tannic acid (TA) was used (FIG. 27E).

GABAA receptor = conditions: general description; cited from earlier work
aah1Δapt1Δ strain = assay: Yeast growth assay of adenine salvage mutant with adenine feeding; format: cell-based, Saccharomyces cerevisiae
Method: (§1) Strains were grown over night at 30° C. in SD medium without adenine. For spotting assays, strains were diluted to 6.25*10^7 cells/mL and were then 5-fold serially diluted and spotted on SD media with the indicated concentrations of adenine or TA (Sigma-Aldrich). Plates were incubated at 30° C. for 2 days. […] For OD600 measurements, strains were diluted to OD600 0.01, 200 μL of cells were platted on 96 wells plates and incubated at 30° C. for 25 hours with continuous shaking. OD600 was measured using Tecan™ SPARK 10M plate reader.
For the percentage of growth analysis (FIG. 10B and FIG. 13A), OD600 was measured when cells reached log phase. The percentage of growth represents the growth with TA compared to the growth without TA.

adenine fibrils = assay: ThT assay of adenine self-assembly inhibition in vitro; conditions: for amyloids staining (ThT, end point): adenine 8 mg/ml in PBS with inhibitor
Method: Adenine was dissolved at 90° C. in PBS to a final concentration of 8 mg/ml and mixed with the indicated inhibitor, at the indicated concentrations, or with PBS as a control, followed by addition of ThT in PBS. ThT emission data at 480 nm (excitation at 450 nm) were measured at the end point.
Adenine was dissolved to a final concentration of 8 mg/ml at 90° C. in PBS. The solution was plated on a 96-well black plate and mixed with the inhibitor baicalein at the stated concentration, and with 20 μm ThT (final concentration). Fluorescence (excitation at 450 nm, emission at 480 nm) was recorded over time using a Tecan™ Infinite® 200 PRO plate reader. Data processing was performed using the OriginLab software.
To further examine if the compounds specifically target the adenosine amyloid-like structures. the compounds were tested using adenine in-vitro aggregation assay. Adenine was self-assembled with and without the inhibitors and stained with the amyloids dye, Thioflavin T (ThT). […] More specifically. Adenosine (30 mg/mL) and guanosine (3 mg/ml) were dissolved in PBS at 90° C., followed by the addition of ThT at final concentration of 20 μM. ThT emission data at 480 nm (excitation at 450 nm) was measured over time. TEM images show elongated adenosine fibrils (10 mg/mL) and guanosine fibrils (1 mg/mL) (FIGS. 34A and 34B, respectively). ThT fluorescence assay of adenosine and guanosine assemblies, are shown by FIGS. 34C, and 34D respectively.

[1] = system: adenosine aggregates in ADA deficient LCLs; assay: Aggregation assay (Proteostat, FACS) on ADA deficient LCLs; format: cell-based, human; conditions: patient derived lymphoblastoids, adenosine, 19 concentrations from 50 μM to 0.003 μM
Method: 24 hours after seeding in full medium cells were washed with medium without serum and placed in medium without serum. Following 72 hours of incubation with or without Adenosine (A9251 SIGMA) (200 ug/ml), cells were washed with PBS and stained for adenosine aggregates with Proteostat dye (ENZ-51023-KP002). Proteostat concentration was 1:3000 of diluted stock. Following 15 minutes' incubation, cells were washed with PBS and mean fluorescence was measured with FACS.
Cells were treated with adenosine alone or with adenosine with compounds. Compound activity was tested in 19 concentrations in range from 50 uM to 0.003 uM.
Readouts: Proteostat Fluorescence intensity was measured with FACS at 2 excitation wavelengths: 488 nm and 550 nm. Emission wavelength was 600 nm.
24 hours after seeding in 96 round bottom plates in full medium cells were washed once with medium without serum and placed in medium without serum. Following 72 hours of incubation with or without Adenosine (200 ug/ml) and with or without purpurin (2 uM), cells were washed once with PBS and stained for adenosine aggregates with Proteostat dye (Enzo Life Sciences). Proteostat concentration was 1:4000 of diluted stock. Following 15 minutes incubation, cells were washed with PBS and mean flow cytometry was preformed using Stratedigm S1000EXi and the CellCapTure software (Stratedigm, San Jose, Calif.). Analyses were performed using FlowJo software (TreeStar, version 10).
For quantification of intracellular adenosine aggregates by FACS analyses, 100,000 cells were seeded in 96 well plates in full medium. After 24 hours, cells were centrifuged, washed once and added with serum free medium with or without Adenosine (200 μg/ml). After incubation of 72 hours cells were washed with PBS and stained for adenosine aggregates with Proteostat dye. Following 15 minutes incubation, cells were washed with PBS and mean fluorescence was measured with FACS. Mean cell fluorescence of every cell line was normalized to its signal without adenosine and data is presented as percentage of aggregates.

[2] = system: RB857 (PAH-1 mutant) and N2 (WT) worms; assay: C. elegans model for PKU; format: in vivo, Caenorhabditis elegans; conditions: 100 mM phenylalanine in minimal media, Baicalein added
Method: (§2) Wild-type N2, RB857 and NL2099 worms were obtained from the Caenorhabditis Genetics Center. RNAi clones was obtained from the Ahringer RNAi library as previously described [Fisher A L, et al., J. Biol. Chem. 283: 9127-9135(2008)]. Worms were grown on NGM media without peptone and the metabolites were added into a boiling media. Baicalein and EGCG were added to a media after cooled down to 45 degrees.
To study PKU in C. elegans model, a strain was used with mutation in the PAH-1 gene (RB857)]. […] Next, the effect of one of the previously identified hits i.e. baicalein was examined on the development of worms. The life cycle of C. elegans is comprised of the embryonic stage, four larval stages (L1-L4) and adulthood. The end of each larval stage is marked with a molt, during which a new, stage-specific cuticle is synthesized and the old one is shed.

estrogen receptor = estrogen receptor (Homo sapiens, UniProt P03372); conditions: general description; cited from earlier work
lipoxygenases = conditions: general description; cited from earlier work
CYP2C9 = CYP2C9 (Homo sapiens, UniProt P11712); conditions: general description; cited from earlier work
aro3Δ mutant = assay: Yeast growth assay of aro3Δ mutant with tyrosine feeding; format: cell-based, Saccharomyces cerevisiae; conditions: 4a.a SD medium with tyrosine
Method: as §1
The focus was put on a strain with a deletion of the ARO3 gene in which a significant decrease in cellular growth was observed upon tyrosine feeding (see FIG. 21). The inventors aimed to determine whether the toxic effect was influenced by different levels of tyrosine. Thus, the cellular growth of wild-type and the aro3Δ mutant was examined by serial dilutions on selective plates that were supplemented with different concentrations of tyrosine (FIG. 21A). In addition, cellular growth was also examined by measuring the turbidity of the medium upon addition of the indicated concentration of tyrosine (FIG. 21B). […] Thus, cell growth is affected by tyrosine levels in a dose-dependent manner which further supports the notion that the toxicity in the aro3Δ mutant results from the presence of tyrosine.
In order to examine the effect of EGCG on cell growth, the aro3Δ mutant was spotted on 4a.a SD plates that contained tyrosine alone or tyrosine with different concentrations of EGCG. […] Thus, the lag phase in the presence of EGCG was nearly the same as cells unexposed to tyrosine, indicating the potent ability of EGCG to eliminate the tyrosine sensitivity of the aro3Δ mutant. […] Next, the inventors aimed to gain additional insights into the effect of EGCG on the amyloid-like fibrils formed by the accumulation of tyrosine in the aro3Δ mutant cells. For that purpose, cells were stained with the amyloid-specific dye ProteoStat®, and FACS was applied to detect tyrosine aggregates. […] (FIG. 25).

fah-1 RNAi treated worms = assay: C. elegans model for Tyrosinemia (fah-1 RNAi); format: in vivo, Caenorhabditis elegans; conditions: tyrosine added to fah-1 silenced worms
Method: as §2
Mutations in different enzymes that are involved in the tyrosine degradation pathway are responsible for different types of Tyrosinemia. The tyrosine degradation pathway in mammals and C. elegans in conserved and the most severe is type I Tyrosinemia, which is caused by mutations affecting the last enzyme in the pathway, fumarylacetoacetate hydrolase (FAH). To study Tyrosinemia in C. elegans model, an RNAi was used that specifically silences the fumarylacetoacetate hydrolase (fah-1), as was previously reported (K10C4.2). RNAi directed against fah-1 causes severe phenotype of reduced size, impaired fertility and reduction of total number of viable worms (FIG. 32).

phenylalanine assemblies = conditions: reference [4]; cited from earlier work

Chain of CYP2C9 (P11712 whole entry): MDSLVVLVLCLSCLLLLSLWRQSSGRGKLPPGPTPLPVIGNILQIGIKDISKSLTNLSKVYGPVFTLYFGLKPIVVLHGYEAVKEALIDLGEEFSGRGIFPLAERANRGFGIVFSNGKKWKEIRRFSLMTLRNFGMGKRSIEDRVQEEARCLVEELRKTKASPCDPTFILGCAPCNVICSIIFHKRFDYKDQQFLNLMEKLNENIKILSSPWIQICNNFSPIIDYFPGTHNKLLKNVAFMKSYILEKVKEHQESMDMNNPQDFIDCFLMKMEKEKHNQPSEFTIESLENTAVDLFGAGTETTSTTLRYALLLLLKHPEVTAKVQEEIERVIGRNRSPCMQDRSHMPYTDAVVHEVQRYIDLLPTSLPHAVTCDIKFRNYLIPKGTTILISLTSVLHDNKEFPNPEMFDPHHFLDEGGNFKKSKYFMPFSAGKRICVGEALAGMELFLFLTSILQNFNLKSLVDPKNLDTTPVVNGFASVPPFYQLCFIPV
Chain of estrogen receptor (P03372 whole entry, species assumed): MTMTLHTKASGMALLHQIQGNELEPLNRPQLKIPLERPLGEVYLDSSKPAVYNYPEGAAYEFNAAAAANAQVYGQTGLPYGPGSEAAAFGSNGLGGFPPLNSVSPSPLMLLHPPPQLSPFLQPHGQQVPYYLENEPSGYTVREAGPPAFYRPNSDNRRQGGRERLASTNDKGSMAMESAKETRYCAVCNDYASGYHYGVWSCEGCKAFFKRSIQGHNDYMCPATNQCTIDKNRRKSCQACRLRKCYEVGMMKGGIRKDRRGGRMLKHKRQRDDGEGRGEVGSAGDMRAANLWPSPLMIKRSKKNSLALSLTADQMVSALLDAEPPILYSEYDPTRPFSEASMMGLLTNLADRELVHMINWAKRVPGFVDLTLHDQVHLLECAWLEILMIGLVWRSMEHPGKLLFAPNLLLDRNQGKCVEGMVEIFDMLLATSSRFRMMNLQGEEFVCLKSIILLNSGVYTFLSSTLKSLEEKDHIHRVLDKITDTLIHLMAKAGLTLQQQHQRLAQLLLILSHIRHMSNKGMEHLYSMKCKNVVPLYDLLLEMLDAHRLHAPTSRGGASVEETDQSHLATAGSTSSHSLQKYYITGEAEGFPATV

Structure (SMILES): N[C@@H](CCS)C(=O)O [Hcy, homocysteine]
- growth of CYS4 mutant with Hcy in the growth medium (cys4Δ strain): sensitivity

Structure (SMILES): O=C(O)[C@H]1O[C@@H](Oc2cc3oc(-c4ccccc4)cc(=O)c3c(O)c2O)[C@H](O)[C@@H](O)[C@@H]1O [baicalin, reference compound]
- modulation of the benzodiazepine site and/or a non-benzodiazepine site of the GABAA receptor (GABAA receptor): positive allosteric modulator

Structure (SMILES): O=c1cc(-c2ccccc2)oc2cc(O)c(O)c(O)c12 [Baicalein, 5,6,7-Trihydroxy-2-phenyl-chromen-4-one]
- yeast cell growth (aah1Δapt1Δ strain; 2 mg/L adenine, baicalein 2.5, 5, 10 μM): significant effect on yeast cell growth
- adenine self-assembly in vitro (ThT fluorescence over time) (adenine fibrils; 8 mg/ml adenine, baicalein 5, 10, 100, 500 μM): dose-dependent inhibition of adenine self-assembly in vitro
- amyloids staining (ThT, end point) (adenine fibrils): significantly reduced the amyloids staining
- formation of adenosine aggregates (aggregation level, Proteostat staining) [1]: significantly reduce the aggregation level
- formation of adenosine aggregates (aggregation level, Proteostat staining) ([1]; listed as baicalein): inhibited the formation of these aggregates
- total number of worms ([2]; N2 and RB857): beneficial effect on both strains
- development of worms (reaching adulthood) ([2]; RB857 and WT): dramatic beneficial effect on both strains
- modulation of the benzodiazepine site and/or a non-benzodiazepine site of the GABAA receptor (GABAA receptor): positive allosteric modulator
- activity at the estrogen receptor (estrogen receptor): antagonist
- inhibition of certain types of lipoxygenases (lipoxygenases): inhibit
- inhibition of CYP2C9 (CYP2C9): inhibitor

Structure (SMILES): O=C1c2ccccc2C(=O)c2c1ccc(O)c2O [Alizarin, 1,2-Dihydroxyanthracene-9,10-dione]
- formation of adenosine aggregates (aggregation level, Proteostat staining) [1]: significantly reduce the aggregation level
- formation of adenosine aggregates (aggregation level, Proteostat staining) ([1]; listed as alizarin): inhibited the formation of these aggregates

Structure (SMILES): N[C@@H](Cc1ccc(O)cc1)C(=O)O [tyrosine]
- growth of aro3Δ mutant with increasing tyrosine concentration (aro3Δ mutant): increase of growth inhibition
- size, fertility and total number of viable worms (fah-1 RNAi treated worms): severe decline in all the observed phenotypes

Structure (SMILES): Nc1ncnc2nc[nH]c12 [adenine, Adenine]
- cell growth with increasing adenine levels in the medium (aah1Δapt1Δ strain; SD medium, adenine up to 40 mg/L): decreased cell growth in a dose-dependent manner

Structure (SMILES): C[C@H]1c2cccc(O)c2C(=O)C2=C(O)[C@]3(O)C(=O)C(C(N)=O)=C(O)[C@@H](N(C)C)[C@@H]3[C@@H](O)[C@@H]21 [doxycycline]
- phenylalanine aggregation and cytotoxicity of the assemblies in vitro (phenylalanine assemblies): counteract

Structure (SMILES): O=C1c2ccc(O)c(O)c2C(=O)c2c(O)ccc(O)c21 [Quinalizarin, 1,2,5,8-Tetrahydroxyanthracene-9,10-dione]
- amyloids staining (ThT, end point) (adenine fibrils): significantly reduced the amyloids staining
- formation of adenosine aggregates (aggregation level, Proteostat staining) [1]: significantly reduce the aggregation level
- formation of adenosine aggregates (aggregation level, Proteostat staining) ([1]; listed as quinalizarin): inhibited the formation of these aggregates
